Results as given in ChEMBL document CHEMBL1155278, “3,4-Diaryl-isoxazoles and -imidazoles as potent dual inhibitors of p38alpha mitogen activated protein kinase and casein kinase 1delta” (J Med Chem, 2009).

Key:
[1] = biological target: T1, Mitogen-activated protein kinase 14 (Homo sapiens, UniProt Q16539); experiment: Inhibition of p38alpha by Cherenkov counting
[2] = biological target: T2, Casein kinase I isoform delta (Homo sapiens, UniProt P48730); experiment: Inhibition of recombinant CK1delta kinase domain by Cherenkov counting
Target sequence in this assay (P48730 whole entry, the tested form may be a part, canonical isoform): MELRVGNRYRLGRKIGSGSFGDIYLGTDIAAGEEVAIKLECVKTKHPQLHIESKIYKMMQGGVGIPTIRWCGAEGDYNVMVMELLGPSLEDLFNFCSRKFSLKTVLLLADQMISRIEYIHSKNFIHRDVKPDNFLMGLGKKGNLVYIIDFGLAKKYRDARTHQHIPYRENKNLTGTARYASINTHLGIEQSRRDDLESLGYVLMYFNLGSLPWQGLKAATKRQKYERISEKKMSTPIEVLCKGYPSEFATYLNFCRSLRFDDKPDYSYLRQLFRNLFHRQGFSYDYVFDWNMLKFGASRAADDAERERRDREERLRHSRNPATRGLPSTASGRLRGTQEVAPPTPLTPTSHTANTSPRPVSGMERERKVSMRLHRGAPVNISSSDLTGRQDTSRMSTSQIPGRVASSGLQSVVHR

[3] = biological target: T3, Casein kinase I isoform delta (Rattus norvegicus, UniProt Q06486); experiment: Inhibition of GST-fused rat CK1delta by Cherenkov counting in presence of 20 uM ATP
[4] = biological target: T2, Casein kinase I isoform delta; experiment: Inhibition of GST-fused human full length CK1delta expressed in Escherichia coli at 1 uM
Target sequence in this assay (P48730 whole entry, looked up, the tested form may be a part, canonical isoform): as the sequence (P48730 whole entry, the tested form may be a part, canonical isoform) above

[5] = biological target: T2, Casein kinase I isoform delta; experiment: Inhibition of human CK1delta
Target sequence in this assay (P48730 whole entry, the tested form may be a part, canonical isoform): as above

[6] = biological target: Casein kinase I isoform delta (Oryctolagus cuniculus, UniProt P81123); experiment: Inhibition of rabbit skeletal muscle CK1delta by liquid scintillation counting
[7] = biological target: T2, Casein kinase I isoform delta; experiment: Inhibition of GST-fused human full length CK1delta expressed in Escherichia coli at 25 uM
Target sequence in this assay (P48730 whole entry, looked up, the tested form may be a part, canonical isoform): as the sequence (P48730 whole entry, the tested form may be a part, canonical isoform) above

[8] = Cell cycle arrest in human AC1-M88 cells assessed as accumulation at G2 phase at 3.32 uM after 48 hrs by propidium iodide staining-based FACS analysis; type: functional
[9] = Cell cycle arrest in human AC1-M88 cells assessed as accumulation at G1 phase at 3.32 uM after 48 hrs by propidium iodide staining-based FACS analysis; type: functional
[10] = Cell cycle arrest in human AC1-M88 cells assessed as accumulation at subG1 phase at 3.32 uM after 48 hrs by propidium iodide staining-based FACS analysis; type: functional
[11] = Cell cycle arrest in human AC1-M88 cells assessed as accumulation at S phase at 3.32 uM after 48 hrs by propidium iodide staining-based FACS analysis; type: functional
[12] = biological target: T3, Casein kinase I isoform delta
[13] = biological target: T1, Mitogen-activated protein kinase 14; details: 10 uM

T3 sequence (Q06486 whole entry, the tested form may be a part, canonical isoform): as the sequence (P48730 whole entry, the tested form may be a part, canonical isoform) above, with I381V counted along it
T1 sequence (Q16539 whole entry, the tested form may be a part, canonical isoform): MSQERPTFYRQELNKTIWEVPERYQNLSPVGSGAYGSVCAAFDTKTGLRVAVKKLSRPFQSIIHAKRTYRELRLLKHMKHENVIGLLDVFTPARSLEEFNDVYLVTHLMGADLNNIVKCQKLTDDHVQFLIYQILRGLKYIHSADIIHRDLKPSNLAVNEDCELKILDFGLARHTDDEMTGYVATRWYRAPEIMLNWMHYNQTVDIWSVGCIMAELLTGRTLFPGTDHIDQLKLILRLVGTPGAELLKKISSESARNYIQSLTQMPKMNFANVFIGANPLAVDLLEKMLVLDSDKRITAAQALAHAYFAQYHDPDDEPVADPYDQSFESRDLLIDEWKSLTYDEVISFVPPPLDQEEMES
Casein kinase I isoform delta (Oryctolagus cuniculus, UniProt P81123), sequence (P81123 whole entry, the tested form may be a part, canonical isoform): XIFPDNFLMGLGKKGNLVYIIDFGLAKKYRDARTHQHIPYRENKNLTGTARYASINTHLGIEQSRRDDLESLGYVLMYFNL

Compound | IC50 [1] [nM] | IC50 [2] [nM] | IC50 [3] [nM] | further results
CC(C)c1onc(-c2ccc(F)cc2)c1-c1ccnc(NC(=O)Cc2ccc(F)cc2)c1 | 1560 | 110 | 90 | –
CC(Oc1ccccc1)C(=O)Nc1cc(-c2c(-c3ccc(F)cc3)noc2C(C)C)ccn1 (racemic) | 890 | 820 | 340 | –
C[S+]([O-])c1ccc(-c2nc(-c3ccc(F)cc3)c(-c3ccncc3)[nH]2)cc1 (centres undefined) | – | – | – | inhibition [4]: 92%
COc1cc(OC)c(C=C2C(O)=Nc3ccccc32)c(OC)c1 [IC261] | – | – | – | IC50 [5]: 1000 nM
Oc1ccc(-c2nc(-c3ccc(F)cc3)c(-c3ccncc3)[nH]2)cc1 | – | – | – | inhibition [4]: 79%
CC(C)c1onc(-c2ccc(F)cc2)c1-c1ccnc(NC2CCOCC2)c1 | 60 | 2500 | – | –
NCCNS(=O)(=O)c1ccc(Cl)c2ccncc12 | – | – | – | IC50 [6]: 10000 nM; inhibition [7]: 88%
CC(C)c1onc(-c2ccc(F)cc2)c1-c1ccnc(N[C@@H](C)c2ccccc2)c1 | 6 | 1600 | – | –
COc1ccc(/C=C/C(=O)Nc2cc(-c3c(-c4ccc(F)cc4)noc3C(C)C)ccn2)c(OC)c1 | 2520 | 33 | 47 | Activity [8]: 14.8%; Activity [9]: 33%; Activity [10]: 34.4%; Activity [11]: 14.8%
CC(=O)Nc1cc(-c2c(-c3ccc(F)cc3)noc2C(C)C)ccn1 | 300 | 700 | 330 | –
NC(=O)c1ccc(-c2nc(-c3ccc4c(c3)OCCO4)c(-c3ccccn3)[nH]2)cc1 | – | – | – | IC50 [12]: 300 nM; inhibition [13]: 62%
CCC(C)Nc1cc(-c2c(-c3ccc(F)cc3)noc2C(C)C)ccn1 (centres undefined) | 30 | – | – | –
CC(C)c1onc(-c2ccc(F)cc2)c1-c1ccnc(N[C@H](C)c2ccccc2)c1 | 450 | – | – | –
